The values that follow come from ChEMBL document CHEMBL1136551, “Characterization of the mechanism of anticonvulsant activity for a selected set of putative AMPA receptor antagonists” (Bioorg Med Chem Lett, 2003).

Experiment [1] concerns the target T1, Glutamate receptor ionotropic, AMPA (Rattus norvegicus, UniProt P19490+P19491+P19492+P19493). Nature of the experiment: Ability to displace [3H]CP-526427 from the Ionotropic glutamate receptor AMPA binding site in rat forebrain membranes. Type of experiment: cell membranes, Brain, Membrane.
For the next experiment, the species on record is Rattus norvegicus. The experiment in a line: Inhibition of KA-induced increase in [Ca2+]i in rat cerebellar granule neurons. Type of experiment: functional.
Experiment [2] addresses Glutamate receptor ionotropic, AMPA (Rattus norvegicus) (UniProt P19491+P19492+P19493+P19490). The experiment in a line: Percent inhibition of [3H]CP-526427 binding to Ionotropic glutamate receptor AMPA in rat forebrain membranes at 32 uM. Type of experiment: cell membranes. The settings on record: Membrane.
Experiment [3] concerns the target Glutamate receptor ionotropic, NMDA 1 (Rattus norvegicus) (UniProt P35439). The experiment in a line: Percentage inhibition of [3H]glycine to NMDA receptors of rat cortical membranes at 32 uM. Type of experiment: cell membranes. Conditions: Membrane.
The target in experiment [4] is T1, Glutamate receptor ionotropic, AMPA. Nature of the experiment: Ability to displace [3H]CP-526427 from the AMPA receptor binding site in rat forebrain membranes. The experiment is classed as cell membranes, Membrane.
The species entered for experiment [5] is Mus musculus. The experiment in a line: Anticonvulsant activity against audiogenic seizures in DBA/2 mice measured in tonic phase. Type of experiment: functional.
Experiment [6] is filed under the species Mus musculus. Nature of the experiment: Anticonvulsant activity against audiogenic seizures in DBA/2 mice measured in clonic phase. Type of experiment: functional.
In experiment [7] the target is Glutamate receptor ionotropic, NMDA 1 (Rattus norvegicus, UniProt P35439). The experiment in a line: Inhibition of specific binding of [3H]glycine to NMDA receptors, in rat cortical membranes at 32 uM conc. Type of experiment: cell membranes, Membrane.

On to `Nc1cccc(C2=NNC(=O)Cc3cc4c(cc32)OCO4)c1`, for which the IC50 (in experiment [1]; in the experiment listed under Rattus norvegicus) was above 320 µM throughout. Further, the inhibition in experiment [2] was found to be 31%; in experiment [3], 0%.

For the molecule `CC1=NN=C(c2ccc(N)cc2)c2cc3c(cc2C1)OCO3` [GYKI-52466], the IC50 in experiment [4] came out at 12.6 µM; in the experiment listed under Rattus norvegicus it was 22 µM. Also, the inhibition in experiment [3] is 18%.

Consider `CNC(=O)N1NC(c2ccc(N)cc2)c2cc3c(cc2CC1=O)OCO3` (centres undefined), for which the ED50 was found to be 12.4 µmol/kg in the experiment filed under Mus musculus [5] and 14.7 µmol/kg in the experiment filed under Mus musculus [6]. This molecule registered an IC50 in the experiment listed under Rattus norvegicus above 100 µM. For the same molecule, the inhibition in experiment [2] was determined as 0%; in experiment [3] it was 12%.

Regarding `Nc1ccc(C2=NNC(=O)Cc3cc4c(cc32)OCO4)cc1`, the IC50 in experiment [1] was determined as 32 µM; in the experiment filed under Rattus norvegicus, 13 µM. Besides, the inhibition in experiment [2] worked out at 74%; in experiment [3], 0%.

`Nc1ccc(-c2nnc(O)c3cc4c(cc23)OCO4)cc1`: the IC50 in the experiment filed under Rattus norvegicus was above 100 µM. Further, the inhibition in experiment [2] worked out at 13%; in experiment [3] it was 12%.

`CNC(=O)NC(=O)Cc1cc2c(cc1C(=O)c1ccc(N)cc1)OCO2`: the inhibition is 3% in experiment [2] and 11% in experiment [3].

In the case of `O=C(O)c1cc(O)c2c(Cl)cc(Cl)cc2n1`, the half-maximal inhibitory concentration (IC50) in experiment [7] was determined as 0.09 µM. This lies in the double-digit nanomolar range.

`Nc1ccc(C2NNC(=O)Cc3cc4c(cc32)OCO4)cc1` (centres undefined) yielded an ED50 in the experiment filed under Mus musculus [5] of 6.47 µmol/kg. In the experiment listed under Rattus norvegicus, this molecule displayed an IC50 above 100 µM. Further, the inhibition in experiment [2] was determined as 10%; in experiment [3] it was 9%.

Regarding `CCCCNC(=O)N1NC(c2ccc(N)cc2)c2cc3c(cc2CC1=O)OCO3` (centres undefined), the values for the 50% effective dose (ED50) in the experiment listed under Mus musculus [5] and in the experiment filed under Mus musculus [6] were 32.7 µmol/kg and 39.2 µmol/kg, respectively. This molecule registered an IC50 in the experiment filed under Rattus norvegicus above 100 µM. In addition, the inhibition worked out at 0% in experiment [2] and 13% in experiment [3].

On to `CNC(=O)NC(=O)Cc1cc2c(cc1Cc1ccc(N)cc1)OCO2`, for which the inhibition in experiment [2] and in experiment [3] was 0% throughout.

Turning to `CNC(=O)N1N=C(c2ccc(N)cc2)c2cc3c(cc2CC1=O)OCO3`, the IC50 in experiment [1] turned out to be 12 µM; in the experiment listed under Rattus norvegicus it was 11 µM. In addition, the inhibition in experiment [2] turned out to be 59%; in experiment [3] it was 0%.

On to `CNC(=O)N/N=C(\c1ccc(N)cc1)c1cc2c(cc1CC(=O)OC)OCO2`, for which the 50% effect level in the experiment listed under Mus musculus [6] (ED50) was put at a dose of 7.87 µmol/kg. Besides, the inhibition is 16% in experiment [2] and 2% in experiment [3].

As to `NS(=O)(=O)c1cccc2c1c([N+](=O)[O-])cc1nc(O)c(O)nc12`, the inhibition in experiment [3] stood at 3%.

In the experiment filed under Rattus norvegicus, `CCCCNC(=O)n1nc(-c2ccc(N)cc2)c2cc3c(cc2c1=O)OCO3` had an IC50 above 100 µM. Besides, the inhibition in experiment [2] is 0%; in experiment [3] it was 13%.

The term IC50 denotes the concentration at which inhibition is half-maximal. High values mean weaker potency, low ones greater potency. One may read the inhibition as the share of the control response that was lost under treatment. The low end stands for a weak effect, the high end for a strong effect. As usually defined, the ED50 is the dose that gives a 50% effect, or the effect in half of the subjects.
